According to PubChem BioAssay (NCI):
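The compound was tested at five concentrations on cells cultured in 96-well plates, with a 48-hour exposure period. GI50: concentration for 50% inhibition of growth. The concentration for full growth arrest is given as TGI.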

Experiments:
Assay in all cases: DTP human tumour cell line panel, 48 h
A498 renal = tested on: A498 renal
A549 NSCLC = tested on: A549 NSCLC
TK-10 renal = tested on: TK-10 renal
K-562 leukemia = tested on: K-562 leukemia
SF-539 CNS = tested on: SF-539 CNS
SK-MEL-5 melanoma = tested on: SK-MEL-5 melanoma
MDA-MB-231 breast = tested on: MDA-MB-231 breast
PC-3 prostate = tested on: PC-3 prostate
786-0 renal = tested on: 786-0 renal
SR leukemia = tested on: SR leukemia
HT29 colon = tested on: HT29 colon
UO-31 renal = tested on: UO-31 renal
HOP-62 NSCLC = tested on: HOP-62 NSCLC
EKVX NSCLC = tested on: EKVX NSCLC
KM12 colon = tested on: KM12 colon
MOLT-4 leukemia = tested on: MOLT-4 leukemia
SW-620 colon = tested on: SW-620 colon
OVCAR-4 ovarian = tested on: OVCAR-4 ovarian
SNB-19 CNS = tested on: SNB-19 CNS
LOX IMVI melanoma = tested on: LOX IMVI melanoma
CCRF-CEM leukemia = tested on: CCRF-CEM leukemia
HL-60(TB) leukemia = tested on: HL-60(TB) leukemia
HOP-92 NSCLC = tested on: HOP-92 NSCLC
COLO 205 colon = tested on: COLO 205 colon
MALME-3M melanoma = tested on: MALME-3M melanoma
BT-549 breast = tested on: BT-549 breast
UACC-257 melanoma = tested on: UACC-257 melanoma
MDA-MB-435 = tested on: MDA-MB-435
UACC-62 melanoma = tested on: UACC-62 melanoma
DU-145 prostate = tested on: DU-145 prostate
HCT-116 colon = tested on: HCT-116 colon
OVCAR-3 ovarian = tested on: OVCAR-3 ovarian
HCT-15 colon = tested on: HCT-15 colon
SF-295 CNS = tested on: SF-295 CNS
RXF 393 renal = tested on: RXF 393 renal
RPMI-8226 leukemia = tested on: RPMI-8226 leukemia
OVCAR-8 ovarian = tested on: OVCAR-8 ovarian
SK-MEL-2 melanoma = tested on: SK-MEL-2 melanoma
SNB-75 CNS = tested on: SNB-75 CNS
SN12C renal = tested on: SN12C renal
NCI-H460 lung = tested on: NCI-H460 lung
SF-268 CNS = tested on: SF-268 CNS
NCI-H23 lung = tested on: NCI-H23 lung
HS 578T breast = tested on: HS 578T breast
T-47D breast = tested on: T-47D breast
NCI-H226 lung = tested on: NCI-H226 lung
SK-MEL-28 melanoma = tested on: SK-MEL-28 melanoma
OVCAR-5 ovarian = tested on: OVCAR-5 ovarian
M14 melanoma = tested on: M14 melanoma
ACHN renal = tested on: ACHN renal
CAKI-1 renal = tested on: CAKI-1 renal
SK-OV-3 ovarian = tested on: SK-OV-3 ovarian
NCI-H522 lung = tested on: NCI-H522 lung
IGROV1 ovarian = tested on: IGROV1 ovarian
MCF7 breast = tested on: MCF7 breast
NCI/ADR-RES ovarian = tested on: NCI/ADR-RES ovarian
U251 CNS = tested on: U251 CNS
HCC-2998 colon = tested on: HCC-2998 colon

## CC1(C)CC[C@]2(C(=O)O)CC[C@]3(C)C(=CC[C@@H]4[C@@]5(C)C/C(=C/c6ccco6)C(=O)C(C)(C)[C@@H]5CC[C@]43C)[C@@H]2C1
A498 renal
  GI50: 6.14 µM
  TGI: 45.6 µM
A549 NSCLC
  GI50: 2.6 µM
  TGI: 23.5 µM
TK-10 renal
  GI50: 6.11 µM
  TGI: 89.8 µM
K-562 leukemia
  GI50: 3.37 µM
  TGI: > 100 µM
SF-539 CNS
  GI50: 3.34 µM
  TGI: 11.6 µM
SK-MEL-5 melanoma
  GI50: 2.51 µM
  TGI: 8.74 µM
MDA-MB-231 breast
  GI50: 3.49 µM
  TGI: 19.5 µM
PC-3 prostate
  GI50: 2.62 µM
  TGI: 14.9 µM
786-0 renal
  GI50: 4.12 µM
  TGI: 26.5 µM
SR leukemia
  GI50: 4.04 µM
  TGI: 52.4 µM
HT29 colon
  GI50: 3.14 µM
  TGI: 14.1 µM
UO-31 renal
  GI50: 2.39 µM
  TGI: 11.6 µM
HOP-62 NSCLC
  GI50: 3.75 µM
  TGI: 14.9 µM
EKVX NSCLC
  GI50: 3.62 µM
  TGI: 31.1 µM
KM12 colon
  GI50: 2.77 µM
  TGI: 11.6 µM
MOLT-4 leukemia
  GI50: 1.04 µM
  TGI: > 100 µM
SW-620 colon
  GI50: 3.82 µM
  TGI: 18.2 µM
OVCAR-4 ovarian
  GI50: 3.76 µM
  TGI: 41.1 µM
SNB-19 CNS
  GI50: 4.02 µM
  TGI: > 100 µM
LOX IMVI melanoma
  GI50: 2.46 µM
  TGI: 6.77 µM
CCRF-CEM leukemia
  GI50: 3.16 µM
  TGI: 31.6 µM
HL-60(TB) leukemia
  GI50: 2.55 µM
  TGI: 6.84 µM
HOP-92 NSCLC
  GI50: 2.69 µM
  TGI: 12.2 µM
COLO 205 colon
  GI50: 2.02 µM
  TGI: 3.89 µM
MALME-3M melanoma
  GI50: 3.99 µM
  TGI: 16.6 µM
BT-549 breast
  GI50: 4.01 µM
  TGI: 23.4 µM
UACC-257 melanoma
  GI50: 6.24 µM
  TGI: 35.6 µM
MDA-MB-435
  GI50: 3.63 µM
  TGI: 14.1 µM
UACC-62 melanoma
  GI50: 3.06 µM
  TGI: 12.8 µM
DU-145 prostate
  GI50: 4.02 µM
  TGI: 15.1 µM
HCT-116 colon
  GI50: 2.9 µM
  TGI: 12 µM
OVCAR-3 ovarian
  GI50: 2.9 µM
  TGI: 9.61 µM
HCT-15 colon
  GI50: 2.5 µM
  TGI: 13.4 µM
SF-295 CNS
  GI50: 3.22 µM
  TGI: 18.1 µM
RXF 393 renal
  GI50: 3.3 µM
  TGI: 13.6 µM
RPMI-8226 leukemia
  GI50: 2.22 µM
  TGI: 10.7 µM
OVCAR-8 ovarian
  GI50: 4.29 µM
  TGI: > 100 µM
SK-MEL-2 melanoma
  GI50: 2.99 µM
  TGI: 11.4 µM
SNB-75 CNS
  GI50: 3.04 µM
  TGI: 54.6 µM
SN12C renal
  GI50: 3.37 µM
  TGI: 19.2 µM
NCI-H460 lung
  GI50: 3.38 µM
  TGI: 12.2 µM
SF-268 CNS
  GI50: 4.03 µM
  TGI: 23 µM
NCI-H23 lung
  GI50: 3.13 µM
  TGI: 17.6 µM
HS 578T breast
  GI50: 5.19 µM
  TGI: 54.1 µM
T-47D breast
  GI50: 3.23 µM
  TGI: 48.4 µM
NCI-H226 lung
  GI50: 3.42 µM
  TGI: 19.5 µM
SK-MEL-28 melanoma
  GI50: 4.35 µM
  TGI: 17.4 µM
OVCAR-5 ovarian
  GI50: 6.15 µM
  TGI: 32.5 µM
M14 melanoma
  GI50: 4.51 µM
  TGI: 21.6 µM
ACHN renal
  GI50: 2.89 µM
  TGI: 11.1 µM
CAKI-1 renal
  GI50: 2.72 µM
  TGI: 15.7 µM
SK-OV-3 ovarian
  GI50: 4.22 µM
  TGI: 79.4 µM
NCI-H522 lung
  GI50: 3.22 µM
  TGI: 24.3 µM
IGROV1 ovarian
  GI50: 4.48 µM
  TGI: 22.2 µM
MCF7 breast
  GI50: 3.18 µM
  TGI: 23.5 µM
NCI/ADR-RES ovarian
  GI50: 3.64 µM
  TGI: 44.5 µM
U251 CNS
  GI50: 3.45 µM
  TGI: 15 µM
HCC-2998 colon
  GI50: 3.15 µM
  TGI: 12.2 µM
